Experimental data: patent US6995136B1, “Peptide fragments of murine epidermal growth factor as laminin receptor targets” (The Queen's University of Belfast, priority 1998, dated 2006)

Tests used:
C57-BL/6J mice = assay: Murine model of proliferative retinopathy (retinopathy of prematurity, ROP); format: in vivo, mouse
Experimental: Litters of 7 day old C57-BL/6J mice, together with their nursing dams, are exposed to 80% oxygen in an incubator maintained at 23° C. and with a gas exchange of 1.5 L/min for 5 days according to the protocol described by Stitt et al. (1998). On postnatal day 12 (P12) the animals are returned to room air and sacrificed at various times posthyperoxia. Animals are treated with daily i.p. injections of either laminin agonists (10 μg per head per day) or vehicle control. Groups of room air controls are maintained in parallel with hyperoxia-exposed animals. Home Office project and personal licenses are held for this work. All animals are housed and maintained in accordance with the ARVO regulations for animal care in research.
Animals are sacrificed at pre-determined key stages in the vaso-obliteration (P7–P12), ischaemia (P12 onwards) and vaso-proliferative responses (P 12–21). At sacrifice, terminally anaesthetised animals have a single eye enucleated and the retina removed to be snap-frozen for later RNA-extraction (see below). The fellow eye is either perfused with fluorescein dextran or enucleated and fixed in 4% paraformaldehyde for histology, immunohistochemistry and in situ hybridisation.

[1] = molecular target: T1, 67 kDa laminin receptor (67-LR) (Homo sapiens, UniProt P08865); assay: 125I-laminin displacement (competition binding) on T47-D or SK HEP-1 cells; conditions: relative to mEGF(33-42); 0.1 nM 125I-laminin, overnight 4° C.
T1 construct: endogenous in cells; host or cells: T47-D or SK HEP-1 cells (whole-cell suspension)
Experimental: ^125I-laminin was prepared using ^125I-labelled sodium iodide (Amersham, UK) and immobilised chloramine-T (Iodobeads; Pierce, Ill.). Prior to use, the beads were washed with 500 μl phosphate buffer (pH 6.5) to remove excess reagent from the support. These were then allowed to air dry and individual beads added to a solution of carrier free Na^125I, diluted with iodination buffer (phosphate buffer pH 7.4). The beads were allowed to equilibrate for 5 min.
Laminin (10 μg in 10 μl) was then diluted into the iodination buffer and the system incubated at 20° C. for 15 min. The solution was then removed from the reaction vessel and excess Na^125I and unincorporated ^125I2 separated from the iodinated protein by gel filtration on a GF-5 exclusion column (Pierce, Ill.). Iodinated laminin fractions were recovered at a specific activity of approximately 1.2 mCi/mg protein (864 Ci/mmol).
Near confluent cultures of T47-D or SK HEP-1 cells were removed from monolayer with 0.02% EGTA and passed through a G-25 syringe needle to produce single cell suspensions. Aliquots of each cell type (10^6 cells/ml) were dispensed into separate Ependorf tubes (1 ml each) and pelleted. The cells were then resuspended in 1 ml ice-cold RPMI (SK HEP-1) or DMEM (T47-D) containing 0.1% BSA and either laminin or synthetic peptide at the concentrations indicated. Iodinated laminin was then added to each cell suspension to give a final ^125I-laminin concentration of 0.1 nM (approximately 50,000 cpm). These mixtures were incubated overnight at 4° C.
The tubes were then microfuged at 10,000 g and the supernatant removed. After washing the pellet with 500 μl CFS, the remaining radioactivity was determined using a gamma radiation counter. Non-specific binding was determined by incubating cells with a 1000-fold molar excess of unlabelled laminin. All estimations were carried out in triplicate.
IC50 (concentration of unlabelled peptide required to produce 50% inhibition of radioligand binding) and EC50 (effective concentration for 50% inhibition of cell attachment) values were calculated using the Grafit curve-fitting programme (Erithacus Software, London, UK).

[2] = system: Endothelial cells (SK HEP-1 and BRCE); assay: Migration assay (colloidal gold track area); format: cell-based; conditions: mammalian cell lines
Experimental: The method used was basically as described by Albrecht-Buehler (1977). Briefly, coverslips (22×22 mm) were treated in 5% detergent (7×; ICN Biomedicals) and washed in alcohol to remove grease. After drying, they were immersed in gelatin solution (Sigma, 300 Bloom; 0.5 g in 300 ml distilled H2O) for 10 min. The coverslips were then dried by placing in a 70° C. oven for 45 min.
Colloidal gold suspension was prepared by adding 11 ml distilled H2O and 6 ml Na2CO3 (36.5 mM) to 1.8 ml AuHCl4 (14.5 mM). The mixture was heated to 95° C. at which point 1.8 ml of freshly prepared 0.1% formaldehyde solution was added; the temperature was maintained at 95° C. A suspension of colloidal gold was formed which was brown to absorbed light and blue to transmitted light.
The gold suspension, was then added to petri dishes containing individual coverslips and the plates incubated at 37° C. for 45 min. After washing with CFS (3×4 ml) to remove unattached gold particles, the coverslips were transferred to 6-well cluster dishes and UV sterilised.
Endothelial cells (SK HEP-1 and BRCE) in culture media (0.3 ml) were seeded onto the coverslips at an approximate density of 5×10^3 cells per well. The cells were allowed to plate down for 2 h at 37° C. after which the treatments were added. Assay systems were maintained for a further 18 h after which the cells were fixed using 3% gluteraldehyde in cacodylate buffer (pH 7.2).
The assays were examined using a Leica DM1RB phase contrast microscope and Q500MC image analysis system incorporating a JVC TK-1280E colour camera (Leica, Milton Keynes, UK). The track images of at least 30 cells were videocaptured and the area (representing migration response) determined for each. Statistical analysis of these areas was then carried out using Macintosh Instat software to perform both Kruskal-Wallis analysis of variance and Mann-Whitney U-tests in order to compare the treatment groups with controls.

[3] = system: angiogenesis in the chick; assay: Chick angiogenesis model; format: in vivo; conditions: chick
[4] = system: angiogenesis in the chick; conditions: already known in the field; cited from earlier work
tumour cells = conditions: already known in the field; cited from earlier work
[5] = FIG. 1b versus 1a, 10 μg per head per day i.p.

CDPGYIGSR [Lam.β-1(925-933), CDPGYIGSR-NH2, synthetic peptide of amino acids 925–933 of the laminin β-1 chain, 67LR agonist, reference compound]
re-canalisation of areas of vaso-obliteration (C57-BL/6J mice; [5]): promotes re-canalisation of areas of vaso-obliteration
uncontrolled angiogenic response of ROP (C57-BL/6J mice; [5]): prevents the uncontrolled angiogenic response of ROP
development of ROP (C57-BL/6J mice; neonates, daily intraperitoneal injections of 10 μg): development of ROP can be prevented
receptor affinity, 125I-laminin displacement (IC50), in words [1]: equipotent
67LR agonist/antagonist character in mammalian cell lines [2]: pure agonist
67LR agonist/antagonist character in mammalian cell lines ([2]; listed as laminin β-1925-933): pure 67LR agonist
laminin agonist/antagonist character in chick [3]: partial laminin antagonist
angiogenesis in the chick [4]: inhibits angiogenesis in the chick
tumour establishment in mice (tumour cells): inhibit tumour establishment in mice
